According to US11622976B2, “Urine alkali agent useful for treatment of cancer patient” (Delta-Fly Pharma, Inc., priority 2018, dated 2023):
Entries after “also recorded” stand apart in the source; their conditions may differ.

Assays:
[1] = system: breast cancer associated with lung metastasis; assay: Urinary alkalinization therapy, breast cancer patient with lung metastasis (person); type: in vivo, human
Protocol: A patient was diagnosed with breast cancer […] and underwent a surgical operation. In January, 2011, transfer of recurrent breast cancer to the lung was found. Administration of Taxotere (80 mg/m^2) was continued at the intervals of 3 weeks. […] Because of this, the dose of Taxotere was reduced to 60 mg/m^2 (intervals of 3 weeks).

[2] = system: lung cancer; assay: Urinary alkalinization therapy, lung cancer patient; type: in vivo, human
Description: A patient successively underwent a surgery for breast cancer in March, 2009, a surgery for endometrial cancer in October, 2010 and a surgery for lung cancer (adenocarcinoma, upper right lobe) in December, 2011.
From January, 2012, application of a urinary alkalinization therapy, including orally administering magnesium oxide (laxative, Magmitt (manufactured by Kyowa Chemical Industry Co., Ltd.)) every day in a dose of 2 g per day after a meal three times (the dose being divided into three portions), was initiated.

[3] = system: B16 melanoma cells; conditions: aqueous solution 200 mmol/L (17 g/L) fed, with cancer immunotherapy by e.g. a cancer immunity-checkpoint inhibitor; vs water without sodium hydrogen carbonate; cited from earlier work
[4] = system: cancer cells; conditions: pHe shifted from acidic to alkaline range by gradually increasing the concentration in the serum; cited from earlier work
[5] = system: gastric cancer (gastroesophageal junction cancer); conditions: cited from earlier work

## CC(=O)O[C@@]12CO[C@@H]1C[C@H](O)[C@@]1(C)C(=O)[C@H](O)C3=C(C)[C@@H](OC(=O)[C@H](O)[C@@H](NC(=O)OC(C)(C)C)c4ccccc4)C[C@@](O)([C@@H](OC(=O)c4ccccc4)[C@H]21)C3(C)C [Taxotere, docetaxel]
[1]; Taxotere alone 80 mg/m^2 every 3 weeks, six months
  side effect: severe side effect
[1]; Taxotere alone reduced to 60 mg/m^2 every 3 weeks
  disease state: the disease did not become stable

## [O]=[Mg] [magnesium oxide]
[2]; continuous oral administration, 2 g per day
  urine pH value: kept in the alkaline pH range
[2]; oral, 2 g per day in three portions, every day from January, 2012, after surgeries
  recurrence/metastasis, development of another cancer: recurrence and metastasis of lung cancer have not been observed; also recorded: Neither development of another cancer nor recurrence/metastasis has been found

## O=C([O-])O.[Na+] [sodium hydrogen carbonate]
[3]
  antitumor effect: a significantly high antitumor effect is obtained
[4]
  proliferation and invasion of cancer cells: the proliferation and invasion of cancer cells can be suppressed

## Opdivo: immune checkpoint inhibitor containing anti-human PD-1 monoclonal antibody (nivolumab)
[5]; gastric cancer patients (gastroesophageal junction cancer), Lancet. 2017 Dec. 2, 390 (10111): 2461-2471
  median overall survival: about 5.26 months
[5]; patients with end-stage gastric cancer
  tumor shrinkage and decrease of a tumor marker level: seldom confirmed
